Data taken from US20230150979A1, “AMIDE-DISUBSTITUTED PYRIDINE OR PYRIDAZINE COMPOUNDS” (BRISTOL-MYERS SQUIBB COMPANY, priority 2019, published 2023).

System: IFNα-induced STAT phosphorylation (pSTAT5) in human whole blood, CD3 positive population
Assay: IFNα-Induced STAT Phosphorylation in Human Whole Blood
Assay type: cell-based
Conditions: 1 h incubation with compound, 1000 U/mL recombinant human IFNα A/D for 15 min, pSTAT5 (pY694) median fluorescence in CD3 positive cells, read-out: Human WB IFNα-Induced Stat Phosph. (IC50)
Method: IFNα-Induced STAT Phosphorylation in Human Whole Blood
After an hour long incubation with compound, human whole blood (drawn with either EDTA or ACD-A as anti-coagulant) was stimulated with 1000 U/mL recombinant human IFNα A/D (R&D Systems 11200-2) for 15 min. The stimulation was stopped by adding Fix/Lyse buffer (BD 558049). Cells were stained with a CD3 FITC antibody (BD 555916), washed, and permeabilized on ice using Perm III buffer (BD 558050). Cells were then stained with an Alexa-Fluor 647 pSTAT5 (pY694) antibody (BD 612599) for 30 min prior to analysis on the FACS Canto II. The amount of pSTAT5 expression was quantitated by median fluorescence intensity after gating on the CD3 positive population.

| SMILES | IC50 [nM] |
| --- | --- |
| CNC(=O)Nc1cc(Nc2ccccc2S(C)(=O)=O)c(C(=O)NC)cn1 [Example 10] | 3690 |
| [2H]C([2H])([2H])NC(=O)c1nnc(NC(=O)OC)cc1Nc1cccc(-c2noc(CN3CCN(C(=O)OC)CC3)n2)c1OC [Example 65] | 330 |
| [2H]C([2H])([2H])NC(=O)c1nnc(NC(=O)OC)cc1Nc1ccccc1S(C)(=O)=O [Example 4, methyl (6-((methyl-d3)carbamoyl)-5-((2-(methylsulfonyl)phenyl)amino)pyridazin-3-yl)carbamate] | > 10000 |
| [2H]C([2H])([2H])NC(=O)c1nnc(NC(=O)OC)cc1Nc1cccc(-c2noc(COC)n2)c1OC [Example 14] | 1100 |
| [2H]C([2H])([2H])NC(=O)c1nnc(NC(=O)OC)cc1Nc1cccc(-c2noc(CN(C)S(C)(=O)=O)n2)c1OC [Example 62] | 100 |
| [2H]C([2H])([2H])NC(=O)c1nnc(NC(=O)OC)cc1Nc1ccccc1NS(=O)(=O)C1CC1 [Example 5, methyl (5-((2-(cyclopropanesulfonamido)phenyl)amino)-6-((methyl-d3)carbamoyl)pyridazin-3-yl)carbamate] | 750 |
| [2H]C([2H])([2H])NC(=O)c1nnc(N2CCOC2=O)cc1Nc1cccc(-c2ncc(N3CCOC3=O)cn2)c1OC [Example 20] | > 10000 |
| [2H]C([2H])([2H])NC(=O)c1nnc(NC(=O)OC)cc1Nc1ccccc1NS(C)(=O)=O [Example 52] | > 10000 |
| [2H]C([2H])([2H])NC(=O)c1cnc(NC(=O)OC)cc1Nc1cccc(-c2noc(CN3CCOCC3)n2)c1OC [Example 71] | 300 |
| [2H]C([2H])([2H])NC(=O)c1nnc(NC(=O)OC)cc1Nc1cccc(-c2noc(CN3CCCCS3(=O)=O)n2)c1OC [Example 61] | 60 |
| [2H]C([2H])([2H])NC(=O)c1cnc(NC(=O)NC)cc1Nc1cccc(-c2noc(C)n2)c1OC [Example 74] | 210 |
| [2H]C([2H])([2H])NC(=O)c1nnc(NC(=O)OC)cc1Nc1cccc(-c2noc(CN3CCOCC3)n2)c1OC [Example 59] | 290 |
| [2H]C([2H])([2H])NC(=O)c1nnc(NC(=O)OC)cc1Nc1cccc(-c2noc(CN3CCOC3=O)n2)c1OC [Example 70] | 1150 |
| COC(=O)Nc1cc(Nc2cccc(-c3noc(CN4CCN(S(C)(=O)=O)CC4)n3)c2OC)c(C(N)=O)nn1 [Example 64] | 100 |
| [2H]C([2H])([2H])NC(=O)c1nnc(NC(=O)NCC)cc1Nc1ccccc1S(C)(=O)=O [Example 15] | 520 |
| COC(=O)Nc1cc(Nc2cccc(-c3noc(CN4CCN(C(=O)OC)CC4)n3)c2OC)c(C(N)=O)nn1 [Example 60] | 140 |

| SMILES | IC50 [nM] |
| --- | --- |
| [2H]C([2H])([2H])NC(=O)c1cnc(NC(=O)NCC)cc1Nc1cccc(-c2noc(C)n2)c1OC [Example 72] | 140 |
| CNC(=O)c1cnc(NC(=O)Nc2ccccc2)cc1Nc1ccccc1S(C)(=O)=O [Example 6, N-methyl-4-((2-(methylsulfonyl)phenyl)amino)-6-(3-phenylureido)nicotinamide] | > 10000 |
| [2H]C([2H])([2H])NC(=O)c1cnc(NC(=O)OCC)cc1Nc1cccc(-c2noc(C)n2)c1OC [Example 8] | 300 |
| [2H]C([2H])([2H])NC(=O)c1nnc(NC(=O)OC)cc1Nc1cccc(-c2noc(CN3CCCS3(=O)=O)n2)c1OC [Example 68] | 200 |
| CCNC(=O)Nc1cc(Nc2ccccc2S(C)(=O)=O)c(C(=O)NC)cn1 [Example 9] | 1100 |
| [2H]C([2H])([2H])NC(=O)c1nnc(NC(=O)OC)cc1Nc1cccc(-c2noc(CN3CCN(S(C)(=O)=O)CC3)n2)c1OC [Example 66] | 130 |
| [2H]C([2H])([2H])NC(=O)c1cnc(NC(=O)OC)cc1Nc1cccc(-c2nnn(C)n2)c1OC [Example 38] | 130 |
| COC(=O)Nc1cc(Nc2cccc(-c3noc(CN4CCCCS4(=O)=O)n3)c2OC)c(C(N)=O)nn1 [Example 54] | 30 |
| COC(=O)Nc1cc(Nc2cccc(-c3noc(C)n3)c2OC)c(C(N)=O)nn1 [Example 67] | 270 |
| COC(=O)Nc1cc(Nc2cccc(-c3noc(CN4CCOCC4)n3)c2OC)c(C(N)=O)nn1 [Example 56] | 110 |
| [2H]C([2H])([2H])NC(=O)c1cnc(NC(=O)OCC)cc1Nc1cccc(-c2nnn(C)n2)c1OC [Example 21] | 420 |
| [2H]C([2H])([2H])NC(=O)c1nnc(NC(=O)OC)cc1Nc1cccc(-c2noc(CCS(C)(=O)=O)n2)c1OC [Example 69] | 1030 |
| [2H]C([2H])([2H])NC(=O)c1nnc(NC(=O)NC2CC2)cc1Nc1cccc(-c2noc(C)n2)c1OC [Example 77] | 210 |
| [2H]C([2H])([2H])NC(=O)c1cnc(NC(=O)OC)cc1Nc1cccc(-c2noc(C)n2)c1OC [Example 73] | 770 |
| [2H]C([2H])([2H])NC(=O)c1cnc(NC(=O)NCCOC)cc1Nc1cccc(-c2noc(C)n2)c1OC [Example 76] | 160 |

Now from value to compound:

| IC50 [nM] | SMILES |
| --- | --- |
| 190 | [2H]C([2H])([2H])NC(=O)c1nnc(NC(=O)N(C)Cc2ccco2)cc1Nc1cccc(-c2ncn(C)n2)c1OC [Example 49] |
| 970 | [2H]C([2H])([2H])NC(=O)c1nnc(NC(=O)OC)cc1Nc1cccc(-c2noc(C)n2)c1OC [Example 63] |
| 200 | [2H]C([2H])([2H])NC(=O)c1cnc(NC(=O)OC(C)C)cc1Nc1cccc(-c2ncn(C)n2)c1OC [Example 32] |
| 220 | [2H]C([2H])([2H])NC(=O)c1nnc(NC(=O)N(C)C)cc1Nc1cccc(-c2ncn(C)n2)c1OC [Example 22] |
| 520 | [2H]C([2H])([2H])NC(=O)c1nnc(NC(=O)Nc2ccccc2)cc1Nc1cccc(-c2ncn(C)n2)c1OC [Example 34] |
| 140 | [2H]C([2H])([2H])NC(=O)c1nnc(NC(=O)NCCOC)cc1Nc1cccc(-c2ncn(C)n2)c1OC [Example 27] |
| 150 | [2H]C([2H])([2H])NC(=O)c1cnc(NC(=O)OCCC)cc1Nc1cccc(-c2ncn(C)n2)c1OC [Example 50] |
| 110 | [2H]C([2H])([2H])NC(=O)c1nnc(NC(=O)NCC)cc1Nc1cccc(-c2noc(C)n2)c1OC [Example 2, 6-(3-ethylureido)-4-((2-methoxy-3-(5-methyl-1,2,4-oxadiazol-3-yl)phenyl)amino)-N-(trideuteromethyl)pyridazine-3-carboxamide] |
| 70 | COC(=O)Nc1cc(Nc2cccc(-c3ncn(C)n3)c2OC)c(C(N)=O)nn1 [Example 1, Methyl (6-carbamoyl-5-((2-methoxy-3-(1-methyl-1H-1,2,4-triazol-3-yl)phenyl)amino)pyridazin-3-yl)carbamate] |
| 110 | [2H]C([2H])([2H])NC(=O)c1cnc(NC(=O)OCC)cc1Nc1cccc(-c2ncn(C)n2)c1OC [Example 29] |
| 60 | [2H]C([2H])([2H])NC(=O)c1nnc(NC(=O)NCC=C)cc1Nc1cccc(-c2ncn(C)n2)c1OC [Example 37] |
| 1860 | [2H]C([2H])([2H])NC(=O)c1nnc(NC(=O)OC)cc1Nc1cccc(-c2noc(CO)n2)c1OC [Example 58] |
| 230 | [2H]C([2H])([2H])NC(=O)c1nnc(NC(=O)NC(C)(C)C)cc1Nc1cccc(-c2ncn(C)n2)c1OC [Example 24] |
| 60 | [2H]C([2H])([2H])NC(=O)c1nnc(NC(=O)NCC#C)cc1Nc1cccc(-c2ncn(C)n2)c1OC [Example 11] |
| 500 | [2H]C([2H])([2H])NC(=O)c1nnc(NC(=O)Nc2cccc(C)c2)cc1Nc1cccc(-c2ncn(C)n2)c1OC [Example 35] |
| > 10000 | [2H]C([2H])([2H])NC(=O)c1nnc(NC(=O)N2CCNCC2)cc1Nc1cccc(-c2ncn(C)n2)c1OC [Example 28] |
| 330 | [2H]C([2H])([2H])NC(=O)c1nnc(NC(=O)N(C)CCC)cc1Nc1cccc(-c2ncn(C)n2)c1OC [Example 44] |
| 150 | [2H]C([2H])([2H])NC(=O)c1nnc(NC(=O)NC(C)C)cc1Nc1cccc(-c2ncn(C)n2)c1OC [Example 18] |
| 190 | [2H]C([2H])([2H])NC(=O)c1nnc(NC(=O)NC)cc1Nc1cccc(-c2noc(C)n2)c1OC [Example 3, 4-((2-methoxy-3-(5-methyl-1,2,4-oxadiazol-3-yl)phenyl)amino)-N-(trideuteromethyl)-6-(3-methylureido)pyridazine-3-carboxamide] |
| 2210 | [2H]C([2H])([2H])NC(=O)c1nnc(NC(=O)N(C)C2CC2)cc1Nc1cccc(-c2ncn(C)n2)c1OC [Example 46] |
| 290 | [2H]C([2H])([2H])NC(=O)c1nnc(NC(=O)NCc2ccccc2)cc1Nc1cccc(-c2ncn(C)n2)c1OC [Example 40] |
| 430 | [2H]C([2H])([2H])NC(=O)c1nnc(NC(=O)N(C)CC(=C)C)cc1Nc1cccc(-c2ncn(C)n2)c1OC [Example 47] |
| 120 | [2H]C([2H])([2H])NC(=O)c1nnc(NC(=O)NC2CCCCC2)cc1Nc1cccc(-c2ncn(C)n2)c1OC [Example 33] |
| 1180 | [2H]C([2H])([2H])NC(=O)c1nnc(NC(=O)N2CCOCC2)cc1Nc1cccc(-c2ncn(C)n2)c1OC [Example 26] |
| 210 | [2H]C([2H])([2H])NC(=O)c1nnc(NC(=O)OC)cc1Nc1cccc(-c2ncn(C)n2)c1OC [Example 41] |
| 570 | [2H]C([2H])([2H])NC(=O)c1nnc(NC(=O)N(C)CCOC)cc1Nc1cccc(-c2ncn(C)n2)c1OC [Example 43] |
| 1180 | [2H]C([2H])([2H])NC(=O)c1nnc(NC(=O)Nc2ccccn2)cc1Nc1cccc(-c2ncn(C)n2)c1OC [Example 25] |
| 610 | [2H]C([2H])([2H])NC(=O)c1nnc(NC(=O)N2CCCCC2)cc1Nc1cccc(-c2ncn(C)n2)c1OC [Example 12] |
